Data published in US20070203066A1, “Compositions and methods for inhibiting cellular proliferation” (priority 2005, published 2007).
Non-standard residues stand in square brackets, D forms with d. Primed or numbered codes have the meaning given here. No end group written: not given here. Ida = iminodiacetic acid linker, its two carboxyls bind the Lys side-chain amines of two peptides, giving a homodimer; Ida(3) = iminodiacetic acid linker, Lys side-chain amines bound to its two carboxyl groups; Ida(4) = iminodiacetic acid linker (dimerization linker bound to lysine side chain); Ida″ = iminodiacetic acid linker bound to the Lys side-chain amine, forming a dimer; d(hPhe) = N[C@H](CCc1ccccc1)C(=O)O; Cha = N[C@@H](CC1CCCCC1)C(=O)O; ATA = not defined here

System: HUVECs
Type: cell-based
Settings: HUVEC proliferation, bFGF at 10 ng/ml or VEGF at 5 ng/ml, 48 hours, BrdU incorporation; read-out: IC50 on HUVECs
Method in brief: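 HUVECs seeded at 5,000 cells/well in EBM with 2% FCS, adhered ≥12 hours, then stimulated with bFGF 10 ng/ml or VEGF 5 ng/ml plus varying peptide concentrations. After 48 hours at 37 ° C, 5% CO2, proliferation inhibition read by BrdU incorporation.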

Q: How did the IC50 turn out when KRKRKKQQRVKIAYEEIFV [compound 75] was run?
A: Its IC50 is 10 to 30 µM.

Q: For “400 (Ac-DRRRRQAVAIYFK; not fully specified (residue 13, C-terminus); also: homodimer of residues 1-13 via Ida linker at Lys13 side chain) [compound 400]”, which IC50 is on record?
A: The IC50 was under 10 µM.

Q: For “397 (Ac-ARRRRQAVYIYFK; not fully specified (residue 13, C-terminus); also: homodimer of residues 1-13 via Ida linker at Lys13 side chain) [compound 397]”, which IC50 is on record?
A: The IC50 was under 10 µM.

Q: How did the IC50 turn out when “194 (Ac-ARRRAQRVRIIF; also: dimer: C-terminal Phe bound to an amino group of a Lys linker, 2 chains per Lys) [compound 194]” was run?
A: Its IC50 is under 10 µM.

Q: “344 (Ac-ARRRRQRVAIY[Cha]K-NH2; not fully specified (residue 13); also: homodimer: Lys13 side chains joined by Ida (iminodiacetic acid) linker) [compound 344]” was tested. Which IC50 did it give?
A: Its IC50 is under 10 µM.

Q: “373 (Ac-ARRRRQRVA[d(hPhe)]YFK(Ida(3))-NH2; also: homodimer via Ida linker on Lys13 side chain, Boc on Ida amine) [compound 373]” was tested. Which IC50 did it give?
A: The IC50 was 10 to 30 µM.

Q: With “353 (Ac-ARRRRQRVAIYYK-NH2; not fully specified (residue 13); also: homodimer of residues 1-13 via Ida linker on K13 side chain) [compound 353]” as the substance, how does the IC50 read?
A: The IC50 was over 30 µM.

Q: Which IC50 does the source give for KTKRKRKKQRVAIIFVQNM [compound 112] here?
A: Its IC50 is under 10 µM.

Q: How did the IC50 turn out when KTKRKRKKQRVKIIFVQNM [compound 33] was run?
A: The IC50 was under 10 µM.

Q: Which IC50 does the source give for “238 (Ac-RHRRRQHVRIIF; also: dimer via C-terminal Phe to Lys linker) [compound 238]” here?
A: The IC50 was under 10 µM.

Q: Which IC50 does the source give for “490 (Ac-PRRRRQSVAIK(Ida″)F; also: homodimer via Ida linker on Lys11 side chain) [compound 490]” here?
A: Its IC50 is 10 to 30 µM.

Q: How did the IC50 turn out when “427 (Ac-ARRRRQAVAIK(Ida(4))F; also: homodimer of residues 1-12 via Ida linker on Lys11 side chain) [compound 427]” was run?
A: Its IC50 is under 10 µM.

Q: For “250 (Ac-RRRRRQAVAIHFK; not fully specified (C-terminus); also: homodimer: side chain of Lys13 bound to an Ida linker) [compound 250]”, which IC50 is on record?
A: Its IC50 is under 10 µM.

Q: How did the IC50 turn out when “503 (Ac-PRRLRQAVAIYFK; not fully specified (residue 13, C-terminus); also: homodimer via Ida linker on Lys13 side chain) [compound 503]” was run?
A: The IC50 was under 10 µM.

Q: With “351 (Ac-ARRRRQRVAIYGK-NH2; not fully specified (residue 13); also: homodimer of residues 1-13 via Ida linker on K13 side chain) [compound 351]” as the substance, how does the IC50 read?
A: The IC50 was over 30 µM.

Q: “324 (Ac-RRHRRQHVRIYFK(Ida)-NH2; also: homodimer via Ida linker on Lys13 side chain) [compound 324]” was tested. Which IC50 did it give?
A: Its IC50 is under 10 µM.

Q: RKRKKQRVKIAYEEIFVQNM [compound 21] was tested. Which IC50 did it give?
A: The IC50 was over 30 µM.

Q: Which IC50 does the source give for “245 (Ac-RRRHRQRVHIIF; also: homodimer: C-termini of two chains bound to the two amines of a Lys linker) [compound 245]” here?
A: Its IC50 is 10 to 30 µM.

Q: With “266 (Ac-RRRRRQAVAIWFK; not fully specified (C-terminus); also: homodimer: side chain of Lys13 bound to an Ida linker) [compound 266]” as the substance, how does the IC50 read?
A: Its IC50 is under 10 µM.

Q: “444 (Ac-RRRRYQAVAIYFK(Ida(4)); not fully specified (C-terminus); also: homodimer via Ida linker at K13) [compound 444]” was tested. Which IC50 did it give?
A: The IC50 was under 10 µM.

Q: How did the IC50 turn out when KTKRKRKKQRVKIAYVQNM [compound 39] was run?
A: Its IC50 is 10 to 30 µM.

Q: Which IC50 does the source give for “448 (Ac-RRRRRQAAAAAAK(Ida(4)); not fully specified (C-terminus); also: homodimer via Ida linker at K13) [compound 448]” here?
A: Its IC50 is over 30 µM.

Q: TKRKRKKQRVKIIFV [compound 86] was tested. Which IC50 did it give?
A: Its IC50 is 10 to 30 µM.

Q: Which IC50 does the source give for KTKRKRKKQRYEEIFVQNM [compound 30] here?
A: Its IC50 is over 30 µM.

Q: For RKKQRVKIAYEEIFVQNM [compound 23], which IC50 is on record?
A: Its IC50 is 10 to 30 µM.

Q: How did the IC50 turn out when “386 (Ac-ARRRRQNVAIYFK-NH2; not fully specified (residue 13); also: homodimer via Ida linker on Lys13 side chain, Ida amine Boc) [compound 386]” was run?
A: The IC50 was under 10 µM.

Q: With “277 (XRRRRQRVHIYFK; not fully specified; Xaa = Acylated Histidine; The side chain of Lysine at position 13 is covalently bound to an Ida linker forming a homodimer of residues 1 through 13.) [compound 277]” as the substance, how does the IC50 read?
A: Its IC50 is under 10 µM.

Q: How did the IC50 turn out when “357 (Ac-RRRRRQAVRIQIQFK; not fully specified) [compound 357]” was run?
A: Its IC50 is 10 to 30 µM.

Q: For “284 (Ac-RRRRHQHVAIYFK-NH2; not fully specified (residue 13); also: homodimer: Lys13 side chain bound to Ida linker) [compound 284]”, which IC50 is on record?
A: Its IC50 is under 10 µM.

Q: Which IC50 does the source give for “104 (Ac-KTKRKRKKQRVKIIFVQNM; also: homodimer via C-terminal Lys linker) [compound 104]” here?
A: The IC50 was under 10 µM.

Q: With “179 (Ac-RRRRRQRVAIIF; also: dimer: C-terminus of Phe12 of each chain bound to one amino group of a Lys linker) [compound 179]” as the substance, how does the IC50 read?
A: Its IC50 is under 10 µM.

Q: Which IC50 does the source give for “482 (Ac-PRRRRQAVAIKF; not fully specified (residue 11); also: homodimer via Ida linker on Lys11 side chain) [compound 482]” here?
A: The IC50 was under 10 µM.

Q: Which IC50 does the source give for “476 (Ac-PRRRPQAVAIYFK(Ida(3)); not fully specified (C-terminus); also: homodimer via Ida linker on Lys13 side chain) [compound 476]” here?
A: Its IC50 is under 10 µM.

Q: Which IC50 does the source give for “210 (Ac-RRRRAQRVAIIF; also: dimer: Phe C-termini joined via Lys linker) [compound 210]” here?
A: The IC50 was under 10 µM.

Q: For “446 (Ac-RRRRRQAVAIYFK(ATA); reading uncertain; also: homotrimer via Ata linker at K13) [compound 446]”, which IC50 is on record?
A: The IC50 was under 10 µM.

Q: How did the IC50 turn out when “408 (Ac-PRRRRQAVAIYFK; not fully specified (residue 13, C-terminus); also: homodimer via Ida linker on Lys side chains, linker at 13 via Ida, other end not in the chain) [compound 408]” was run?
A: The IC50 was under 10 µM.

Q: With “470 (Ac-PRRRDQAVAIYFK(Ida(3)); not fully specified (C-terminus); also: homodimer via Ida linker on Lys13 side chain) [compound 470]” as the substance, how does the IC50 read?
A: Its IC50 is over 30 µM.

Q: With KTKKQRVKIAYEEIFVQNM [compound 57] as the substance, how does the IC50 read?
A: Its IC50 is over 30 µM.

Q: Which IC50 does the source give for “233 (XRRRRQHVRIIF; Xaa = Acylated Histidine; Dimeric peptide wherein the C terminus of Phe in position 12 of one peptide chain is covalently bound to one of the amino groups of a Lysine linker and Phe of the remaining peptide chain is covalently bound to the other amino group of the Lysine linker.) [compound 233]” here?
A: The IC50 was under 10 µM.
